These are literature values, as cited in patent publication EP1954843B1, “LEACHING PROCESS IN THE PRESENCE OF HY[…] FOR THE RECOVERY OF A VALUE METAL FROM AN ORE” (Anglo Operations Limited, priority 2005, dated 2007).

For the data set the following is noted: at 80°C.

Structures are written as SMILES.

Consider `[Cl-].[Cl-].[Zn+2]` [zinc chloride], for which the “soluble to the extent of” value is given as “ca. 84.4 g/100g saturated solution”.
